We go through 18 compounds from patent US20240109873A1, “ANTAGONISTS OF THE MUSCARINIC ACETYLCHOLINE RECEPTOR M4” (Vanderbilt University, priority 2020, published 2024).

For this experiment, the target named is T1, human mAChR M4 (Homo sapiens, UniProt P08173).
T1 construct: expressed in transfected cells; host or cells: CHO-K1 (ATCC), co-transfected with chimeric G protein Gqi5
T1 sequence (P08173 1-479): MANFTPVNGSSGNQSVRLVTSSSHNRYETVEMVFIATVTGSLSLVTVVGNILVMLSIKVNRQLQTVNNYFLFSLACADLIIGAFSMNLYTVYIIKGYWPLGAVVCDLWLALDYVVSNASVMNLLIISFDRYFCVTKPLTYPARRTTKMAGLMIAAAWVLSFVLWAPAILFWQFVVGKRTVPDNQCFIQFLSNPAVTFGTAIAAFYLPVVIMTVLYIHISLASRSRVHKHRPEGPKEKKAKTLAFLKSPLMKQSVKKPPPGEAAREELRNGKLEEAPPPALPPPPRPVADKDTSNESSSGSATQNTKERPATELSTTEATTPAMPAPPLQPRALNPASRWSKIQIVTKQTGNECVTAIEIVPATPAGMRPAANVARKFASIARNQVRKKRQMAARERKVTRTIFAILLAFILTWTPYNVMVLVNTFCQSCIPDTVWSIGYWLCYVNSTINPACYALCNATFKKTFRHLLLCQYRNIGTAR
The experiment is described as follows: mAChR M4 cell-based functional assay (calcium flux, antagonism of EC80 acetylcholine response, M4/Gqi5/CHO-K1 cells). The settings on record: for remaining activity at 30 µM: CHO-K1, % ACh maximum at 30 μM, read-out: Human M4 Emin; for IC50: decrease of the response elicited by an EC80 concentration of acetylcholine, CHO-K1 cells, Gqi5. The method, boiled down: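 CHO-K1 cells stably expressing human M4 with chimeric Gqi5, loaded with Fluo-4 AM; calcium flux read on FDSS. Compounds (10-point, 1:3 curves) added first, then EC20 acetylcholine at 143 s and EC80 at 268 s. IC50 from decrease of EC80 acetylcholine response, four-parameter logistic fit.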

Regarding `[2H]C([2H])([C@@H]1COCCO1)N1C[C@H]2C[C@H](Nc3ccc(-c4cnccc4C(F)(F)F)nn3)C[C@H]2C1` [Compound 6, (3aR,5s,6aS)-2-(((R)-1,4-dioxan-2-yl)methyl-d2)-N-(6-(4-(trifluoromethyl)pyridin-3-yl)pyridazin-3-yl)octahydrocyclopenta[c]pyrrol-5-amine], the remaining activity at 30 µM was found to be 3% and the half-inhibitory concentration (IC50) (commonly the concentration needed to halve the response being measured) worked out at 33 nM.

Turning to `[2H]C1([2H])CC(C([2H])([2H])N2C[C@H]3C[C@H](Nc4nnc(-c5cnccc5C(F)(F)F)cc4OC)C[C@H]3C2)CC([2H])([2H])O1` [Compound 22, (3aR,5s,6aS)-N-(4-methoxy-6-(4-(trifluoromethyl)pyridin-3-yl)pyridazin-3-yl)-2-((tetrahydro-2H-pyran-4-yl-2,2,6,6-d4)methyl-d2)octahydrocyclopenta[c]pyrrol-5-amine], the remaining activity at 30 µM is 2% and the IC50 stood at 4.5 nM.

For `[2H]C([2H])([C@H]1CCCCO1)N1C[C@H]2C[C@H](Nc3ccc(-c4cccnc4C(F)(F)F)nn3)C[C@H]2C1` [Compound 49, (3aR,5s,6aS)-2-(((R)-tetrahydro-2H-pyran-2-yl)methyl-d2)-N-(6-(2-(trifluoromethyl)pyridin-3-yl)pyridazin-3-yl)octahydrocyclopenta[c]pyrrol-5-amine], the remaining activity at 30 µM came out at 2% and the half-inhibitory concentration (IC50) amounted to 0.55 nM.

Regarding `[2H]C([2H])(C1CCOCC1(C)C)N1C[C@H]2C[C@H](Nc3ccc(-c4cccnc4C(F)(F)F)nn3)C[C@H]2C1` (stereo partly drawn) [Compound 53, (3aR,5s,6aS)-2-((3,3-dimethyltetrahydro-2H-pyran-4-yl)methyl-d2)-N-(6-(2-(trifluoromethyl)pyridin-3-yl)pyridazin-3-yl)octahydrocyclopenta[c]pyrrol-5-amine], the remaining activity at 30 µM worked out at 3% and the half-inhibitory concentration (IC50) came out at 2.9 nM.

As for `[2H]C([2H])(C1CCCCC1)N1C[C@H]2C[C@H](Nc3ccc(-c4cnccc4C(F)(F)F)nn3)C[C@H]2C1` [Compound 10, (3aR,5s,6aS)-2-(cyclohexylmethyl-d2)-N-(6-(4-(trifluoromethyl)pyridin-3-yl)pyridazin-3-yl)octahydrocyclopenta[c]pyrrol-5-amine], the remaining activity at 30 µM amounted to 3% and the IC50 was found to be 0.56 nM.

For `[2H]C([2H])(CC1CCOCC1)N1C[C@H]2C[C@H](Nc3ccc(-c4cccnc4C(F)(F)F)nn3)C[C@H]2C1` [Compound 42, (3aR,5s,6aS)-2-(2-(tetrahydro-2H-pyran-4-yl)ethyl-1,1-d2)-N-(6-(2-(trifluoromethyl)pyridin-3-yl)pyridazin-3-yl)octahydrocyclopenta[c]pyrrol-5-amine], the remaining activity at 30 µM is 2% and the IC50 came to 1.3 nM.

Turning to `[2H]C([2H])([C@H]1CCCCO1)N1C[C@H]2C[C@H](Nc3ccc(-c4cnccc4C(F)(F)F)nn3)C[C@H]2C1` [Compound 7, (3aR,5s,6aS)-2-(((R)-tetrahydro-2H-pyran-2-yl)methyl-d2)-N-(6-(4-(trifluoromethyl)pyridin-3-yl)pyridazin-3-yl)octahydrocyclopenta[c]pyrrol-5-amine], the remaining activity at 30 µM came to 2% and the IC50 came out at 0.13 nM.

For `[2H]C([2H])(C1CCOC(C)(C)C1)N1C[C@H]2C[C@H](Nc3ccc(-c4cccnc4C(F)(F)F)nn3)C[C@H]2C1` (stereo partly drawn) [Compound 43, (3aR,5s,6aS)-2-((2,2-dimethyltetrahydro-2H-pyran-4-yl)methyl-d2)-N-(6-(2-(trifluoromethyl)pyridin-3-yl)pyridazin-3-yl)octahydrocyclopenta[c]pyrrol-5-amine], the remaining activity at 30 µM was determined as 2% and the IC50 was 2.6 nM.

Turning to `[2H]C([2H])(C1CCOCC1)N1C[C@H]2C[C@H](Nc3nnc(-c4cnccc4C(F)(F)F)c4sccc34)C[C@H]2C1` [Compound 34, N-((3aR,5s,6aS)-2-((tetrahydro-2H-pyran-4-yl)methyl-d2)octahydrocyclopenta[c]pyrrol-5-yl)-7-(4-(trifluoromethyl)pyridin-3-yl)thieno[2,3-d]pyridazin-4-amine], the remaining activity at 30 µM was found to be 3% and the half-maximal inhibitory concentration (IC50) came to 0.7 nM.

With `[2H]C([2H])(C1CCCOC1)N1C[C@H]2C[C@H](Nc3ccc(-c4cnccc4C(F)(F)F)nn3)C[C@H]2C1` (stereo partly drawn) [Compound 9, (3aR,5s,6aS)-2-((tetrahydro-2H-pyran-3-yl)methyl-d2)-N-(6-(4-(trifluoromethyl)pyridin-3-yl)pyridazin-3-yl)octahydrocyclopenta[c]pyrrol-5-amine], the remaining activity at 30 µM came out at 2% and the IC50 came to 1 nM.

For `[2H]C([2H])([C@H]1CCCOC1)N1C[C@H]2C[C@H](Nc3ccc(-c4cccnc4C(F)(F)F)nn3)C[C@H]2C1` [Compound 46, (3aR,5s,6aS)-2-(((R)-tetrahydro-2H-pyran-3-yl)methyl-d2)-N-(6-(2-(trifluoromethyl)pyridin-3-yl)pyridazin-3-yl)octahydrocyclopenta[c]pyrrol-5-amine], the remaining activity at 30 µM is 2% and the half-inhibitory concentration (IC50) worked out at 21.7 nM.

With `[2H]C([2H])(N1C[C@H]2C[C@H](Nc3ccc(-c4cnccc4C(F)(F)F)nn3)C[C@H]2C1)C1(C)CCOCC1` [Compound 4, (3aR,5s,6aS)-2-((4-methyltetrahydro-2H-pyran-4-yl)methyl-d2)-N-(6-(4-(trifluoromethyl)pyridin-3-yl)pyridazin-3-yl)octahydrocyclopenta[c]pyrrol-5-amine], the remaining activity at 30 µM worked out at 2% and the half-inhibitory concentration (IC50) was 15 nM.

In the case of `[2H]C([2H])([C@@H]1CCCOC1)N1C[C@H]2C[C@H](Nc3ccc(-c4cccnc4C(F)(F)F)nn3)C[C@H]2C1` [Compound 47, (3aR,5s,6aS)-2-(((S)-tetrahydro-2H-pyran-3-yl)methyl-d2)-N-(6-(2-(trifluoromethyl)pyridin-3-yl)pyridazin-3-yl)octahydrocyclopenta[c]pyrrol-5-amine], the remaining activity at 30 µM was determined as 2% and the IC50 was 4 nM.

As to `[2H]C([2H])(N1C[C@H]2C[C@H](Nc3ccc(-c4cnccc4C(F)(F)F)nn3)C[C@H]2C1)C(F)(F)C1CCOCC1` [Compound 36, (3aR,5s,6aS)-2-(2,2-difluoro-2-(tetrahydro-2H-pyran-4-yl)ethyl-1,1-d2)-N-(6-(4-(trifluoromethyl)pyridin-3-yl)pyridazin-3-yl)octahydrocyclopenta[c]pyrrol-5-amine], the remaining activity at 30 µM stood at 6% and the IC50 was determined as 39 nM.

In the case of `[2H]C1([2H])CC(CN2C[C@H]3C[C@H](Nc4nnc(-c5cnccc5C(F)(F)F)cc4C)C[C@H]3C2)CC([2H])([2H])O1` [Compound 19, (3aR,5s,6aS)-N-(4-methyl-6-(4-(trifluoromethyl)pyridin-3-yl)pyridazin-3-yl)-2-((tetrahydro-2H-pyran-4-yl-2,2,6,6-d4)methyl)octahydrocyclopenta[c]pyrrol-5-amine], the remaining activity at 30 µM came out at 3% and the IC50 came out at 1.3 nM.

For the compound `[2H]C1([2H])CC(C([2H])([2H])N2C[C@H]3C[C@H](Nc4ccc(-c5cccnc5C(F)(F)F)nn4)C[C@H]3C2)CC([2H])([2H])O1` [Compound 44, (3aR,5s,6aS)-2-((tetrahydro-2H-pyran-4-yl-2,2,6,6-d4)methyl-d2)-N-(6-(2-(trifluoromethyl)pyridin-3-yl)pyridazin-3-yl)octahydrocyclopenta[c]pyrrol-5-amine], the remaining activity at 30 µM is 2% and the IC50 was 1.4 nM.

Turning to `[2H]C([2H])(C1CCOCC1)N1C[C@H]2C[C@H](Nc3nnc(-c4cnccc4C(F)(F)F)cc3OC)C[C@H]2C1` [Compound 15, (3aR,5s,6aS)-N-(4-methoxy-6-(4-(trifluoromethyl)pyridin-3-yl)pyridazin-3-yl)-2-((tetrahydro-2H-pyran-4-yl)methyl-d2)octahydrocyclopenta[c]pyrrol-5-amine], the remaining activity at 30 µM is 7% and the IC50 was found to be 2.4 nM.

On to `[2H]C([2H])(C1CCCOCC1)N1C[C@H]2C[C@H](Nc3ccc(-c4cnccc4C(F)(F)F)nn3)C[C@H]2C1` (stereo partly drawn) [Compound 28, (3aR,5s,6aS)-2-(oxepan-4-ylmethyl-d2)-N-(6-(4-(trifluoromethyl)pyridin-3-yl)pyridazin-3-yl)octahydrocyclopenta[c]pyrrol-5-amine], for which the remaining activity at 30 µM amounted to 4% and the half-inhibitory concentration (IC50) was found to be 2.7 nM.
